Key:
PC-3 = assay: Concentration required to inhibit growth of human prostate (PC3) cell line; assay type: functional
NCI-H522 (Homo sapiens) = assay: Concentration required to inhibit growth of human lung (H522) cell line
DU-145 = assay: In vitro inhibition of DU145 (human prostate cancer) cell growth.; assay type: functional
HT-29 = assay: Concentration required to inhibit growth of human colon (HT-29) cell line; assay type: functional
U-251 = assay: Concentration required to inhibit growth of human CNS (U251) cell line; assay type: functional
SK-OV-3 = assay: Concentration required to inhibit growth of human ovarian (SK-OV3) cell line; assay type: functional
UACC-62 = assay: Concentration required to inhibit growth of human melanoma (UACC62) cell line; assay type: functional
ACHN = assay: Concentration required to inhibit growth of human renal (ACHN) cell line; assay type: functional
MCF7 = assay: Concentration required to inhibit growth of human breast (MCF-7) cell line; assay type: functional
OVCAR-8 = assay: Concentration required to inhibit growth of human ovarian (OVCAR8) cell line; assay type: functional
NCI/ADR-RES = assay: in vitro inhibition of MCF-7/ADR (human breast cancer) cell growth.; assay type: functional
SW-620 = assay: Concentration required to inhibit growth of human colon (SW620) cell line; assay type: functional

GI50 (PC-3) [µM] | GI50 (NCI-H522 (Homo sapiens)) [µM] | GI50 (DU-145) [µM] | GI50 (HT-29) [µM] | GI50 (U-251) [µM] | GI50 (SK-OV-3) [µM] | GI50 (ACHN) [µM] | GI50 (MCF7) [µM] | GI50 (OVCAR-8) [µM] | GI50 (SW-620) [µM] | SMILES | GI50 (UACC-62) [µM] | GI50 (NCI/ADR-RES) [µM]
42 | 27 | 3 | 9 | > 100 |  |  | 32 | > 100 | 94 | O=S(=O)(/C=C/c1ccc(O)cc1)Cc1ccc(Nc2ncnc3ccc(Br)cc23)cc1 | 28 | 
5 |  | 1.3 | 4 | 4 | 2.4 | 3.4 | 54 | 12 | 7 | COc1cc2ncnc(Nc3ccc(CS(=O)(=O)/C=C/c4ccc(Cl)cc4Cl)cc3)c2cc1OCCCN1CCOCC1 | 23 | > 100
11 | > 100 | 17 | 27 | > 100 |  |  | 14 | 0.1 | 5 | O=S(=O)(/C=C/c1ccc(Cl)c(Cl)c1)Cc1ccc(Nc2ncnc3ccc(Br)cc23)cc1 | 30 | 
58 | 40 |  | 100 | 30 | 5 | 16 | 32 | 15 | 55 | O=S(=O)(/C=C/c1ccc(C(F)(F)F)cc1F)Cc1ccc(Nc2ncnc3ccc(Br)cc23)cc1 | 22 | 85
100 | 100 |  | 100 | 100 | 44 | 73 | 21 | 100 | 100 | O=S(=O)(/C=C/c1ccc(F)cc1Cl)Cc1ccc(Nc2ncnc3ccccc23)cc1 | 100 | 66
100 | 100 |  | 100 | 100 | 36 | 66 | 100 | 48 | 100 | COc1cc2ncnc(Nc3ccc(CS(=O)(=O)/C=C/c4ccc(F)cc4)cc3)c2cc1OCCN1CCOCC1 | 100 | 
100 | 100 |  | 100 | 100 | 39 | 100 | 100 | 100 | 100 | O=S(=O)(/C=C/c1ccc(C(F)(F)F)cc1F)Cc1ccc(Nc2ncnc3ccccc23)cc1 | 100 | 100
> 100 | > 100 | > 100 | > 100 | > 100 | > 100 | > 100 | > 100 | > 100 | > 100 | O=S(=O)(/C=C/c1ccc(F)cc1F)Cc1ccc(Nc2ncnc3cc(Cl)ccc23)cc1 | > 100 | > 100
14 | 100 | 19 | 2 | 0.3 | 14 | 0.02 | 100 | 1 | 100 | O=S(=O)(/C=C/c1ccc(O)cc1)Cc1ccc(Nc2ncnc3ccccc23)cc1 | 100 | 
100 | 100 |  | 100 | 32 | 2 | 8 | 100 | 100 | 100 | O=S(=O)(/C=C/c1ccc(F)cc1F)Cc1ccc(Nc2ncnc3ccc(Br)cc23)cc1 | 3 | 100
43 | 46 | > 100 | 73 | 49 | 54 | > 100 | 52 | > 100 | 77 | O=S(=O)(/C=C/c1ccc(Cl)cc1)Cc1ccc(Nc2ncnc3ccccc23)cc1 | 13 | > 100
> 100 | > 100 | 2 | > 100 | > 100 | 5 | 58 | 74 | > 100 | > 100 | O=S(=O)(/C=C/c1ccccc1)Cc1ccc(Nc2ncnc3ccccc23)cc1 | > 100 | > 100

More lines, now with the values behind:

SMILES | GI50 (PC-3) [µM] | GI50 (NCI-H522 (Homo sapiens)) [µM] | GI50 (DU-145) [µM] | GI50 (HT-29) [µM] | GI50 (U-251) [µM] | GI50 (SK-OV-3) [µM] | GI50 (ACHN) [µM] | GI50 (MCF7) [µM] | GI50 (OVCAR-8) [µM] | GI50 (SW-620) [µM] | GI50 (UACC-62) [µM] | GI50 (NCI/ADR-RES) [µM]
O=S(=O)(/C=C/c1ccc(Br)cc1)Cc1ccc(Nc2ncnc3ccccc23)cc1 | 42 | > 100 | 55 | > 100 | > 100 | 1 | 0.2 | 91 | 38 | > 100 | > 100 | > 100
O=S(=O)(/C=C/c1ccc(F)cc1F)Cc1ccc(Nc2ncnc3ccccc23)cc1 | > 100 |  |  | > 100 | > 100 | 69 | 31 | > 100 | > 100 | 86 | > 100 | > 100
O=S(=O)(/C=C/c1ccc(Cl)cc1Cl)Cc1ccc(Nc2ncnc3cc(Cl)ccc23)cc1 | 38 | 76 |  | 59 | 53 | 48 | 8 | 25 | > 100 | > 100 | 32 | > 100
O=S(=O)(/C=C/c1ccc(C(F)(F)F)cc1F)Cc1ccc(Nc2ncnc3cc(Cl)ccc23)cc1 | > 100 | > 100 | > 100 | > 100 | > 100 | > 100 | > 100 | > 100 | > 100 | > 100 | > 100 | > 100
O=S(=O)(/C=C/c1ccc(Cl)cc1)Cc1ccc(Nc2ncnc3ccc(Br)cc23)cc1 | 2 | 13 | 1 | > 100 | 30 |  |  | 46 | 3 | 45 | 15 | 
O=S(=O)(/C=C/c1ccc(Br)cc1)Cc1ccc(Nc2ncnc3ccc(Br)cc23)cc1 | 34 | 20 | 3 | 10 | 11 |  |  | 5 | 2 | > 100 | > 100 | 
O=S(=O)(/C=C/c1ccc(F)cc1Cl)Cc1ccc(Nc2ncnc3cc(Cl)ccc23)cc1 | 73 |  | 37 | > 100 | 2 | > 100 | 17 | 15 | > 100 | > 100 | 72 | > 100
COc1cc2ncnc(Nc3ccc(CS(=O)(=O)/C=C/c4ccc(Br)cc4)cc3)c2cc1OC | 9.5 | 8 |  | 24 | 11 | 50 | 4 | 32 | 6 | 5 | 63 | 72
O=S(=O)(/C=C/c1ccc(Cl)c(Cl)c1)Cc1ccc(Nc2ncnc3ccccc23)cc1 | 35 | 32 |  | 11 | 11 | 22 | 28 | 28 | 14 | 41 | 21 | 22

Source: ChEMBL document CHEMBL1146712, “Synthesis and biological evaluation of [4-(2-phenylethenesulfonylmethyl)phenyl]-quinazolin-4-yl-amines as orally active anti-cancer agents” (2004)
